# Reference: patent publication US10689390B2, “Tricyclic fused derivatives of 1-(cyclo)alkyl pyridin-2-one useful for the treatment of cancer” (JUBILANT BIOSYS LIMITED, priority 2015, dated 2020)
# Key:
# BRD4-BD1 = BRD4-BD1 (Homo sapiens (Human), UniProt O60885); test: BRD4 AlphaLISA (Perkin Elmer); type: binding; conditions: 5 nM BRD4-BD1, 12 nM biotinylated substrate, read-out: BRD4_BD1 IC50_μM
# Protocol: BRD4 AlphaLISA (Perkin Elmer)
# Compounds were diluted by step-down dilution method (final concentration of DMSO was 1%) and added to the wells of a 384 well opti plate at desired concentrations. 5 nM BDR4-BD1 enzyme (produced in-house) and 12 nM of biotinylated substrate were added to the wells, covered and incubated at room temperature (RT) for 1 h. At the end of 1 h 250 ng of GSH acceptor beads were added to the well and incubated for 1 h at RT; then 500 ng of streptavidin donor beads were added and incubated again for 1 h at RT. Plates were read in a Pherastar reader at 680 nm excitation and 570 nm emission. As detailed above, compounds were tested for both BRD4 enzyme inhibitory activities and IC50 were determined.
# AML cell line MV4-11 = test: Anticancer activity: Alamar Blue 3-day proliferation assay; type: cell-based; conditions: Homo sapiens, MV4-11 cells, 72 h incubation, read-out: MV4-11 EC50_μM
# Protocol: Anticancer Activity: Alamar Blue Assay
# The impact of the compounds on cancer cell proliferation was determined using the AML cell line MV4-11 (ATCC) in a 3-day proliferation assay. MV4-11 cells were maintained in RPMI supplemented with 10% FBS at 37° C., 5% CO2. For compound testing, MV4-11 cells were plated in a 96-well black bottom plate at a density of 15,000 cells/well in 100 μL culture media and incubated at 37° C. overnight. Compound dilution series were prepared in DMSO via a 3-fold serial dilution from […]. The DMSO dilution series were then diluted with media, with the final compound concentrations added to the wells ranging from […]. […] The fluorescent readings from the Alamar Blue assay were normalized to the DMSO treated cells and analyzed using the GraphPad Prism software with sigmoidal curve fitting to obtain EC50.
IC50 (BRD4-BD1) [nM],EC50 (AML cell line MV4-11) [nM],Structure (SMILES)
24,–,"CCOC(=O)CC1OC(c2ccc(Cl)cc2)c2cc(OC)ccc2-c2cn(C)c(=O)cc21 (racemic) [Compound 1, ±Ethyl 2-(-7-(4-chlorophenyl)-9-methoxy-2-methyl-3-oxo-2,3,5,7-tetrahydrobenzo[5,6]oxepino[4,3-c]pyridin-5-yl)acetate]"
10,1,"CCOC(=O)CC1OC(C2CCCCC2)c2cc(OC)ccc2-c2cn(C)c(=O)cc21 (racemic) [Compound 2, ±Ethyl-2-(7-cyclohexyl-9-methoxy-2-methyl-3-oxo-2,3,5,7-tetrahydrobenzo[5,6]oxepino[4,3-c]pyridin-5-yl)acetate]"
61,175,"CCNC(=O)CC1OC(c2ccc(C)cn2)c2cc(OC)ccc2-c2cn(C)c(=O)cc21 (racemic) [Compound 11, ±2-(9-methoxy-2-methyl-7-(5-methylpyridin-2-yl)-3-oxo-2,3,5,7-tetrahydrobenzo[5,6]oxepino[4,3-c]pyridin-5-yl)-N-ethylacetamide]"
–,2,"CCOC(=O)CC1N=C(c2ccc(Cl)cc2)c2cc(OC)ccc2-c2cn(C)c(=O)cc21 (racemic) [Compound 14, ±-Ethyl-2-(7-(4-chlorophenyl)-9-methoxy-2-methyl-3-oxo-3,5-dihydro-2H-benzo[c]pyrido[3,4-e]azepin-5-yl)acetate]"
122,–,"CCOC(=O)CC1N=C(C(F)(F)F)c2cc(OC)ccc2-c2cn(C)c(=O)cc21 (racemic) [Compound 18, ±Ethyl-2-(9-methoxy-2-methyl-3-oxo-7-(trifluoromethyl)-3,5-dihydro-2H-benzo[c]pyrido[3,4-e]azepin-5-yl)acetate]"
176,–,"CCOC(=O)CC1N=C(C)c2cc(OC)ccc2-c2cn(C)c(=O)cc21 (racemic) [Compound 19, ±Ethyl-2-(9-methoxy-2,7-dimethyl-3-oxo-3,5-dihydro-2H-benzo[c]pyrido[3,4-e]azepin-5-yl)acetate]"
1,5,"CCOC(=O)CC1N=C(c2c(F)cccc2F)c2cc(OC)ccc2-c2cn(C)c(=O)cc21 (racemic) [Compound 23, ±Ethyl-2-(7-(2,6-difluorophenyl)-9-methoxy-2-methyl-3-oxo-3,5-dihydro-2H-benzo[c]pyrido[3,4-e]azepin-5-yl)acetate]"
–,3,"CCNC(=O)CC1N=C(c2ccc(Cl)cc2)c2cc(OC)ccc2-c2cn(C)c(=O)cc21 (racemic) [Compound 25, ±2-(7-(4-chlorophenyl)-9-methoxy-2-methyl-3-oxo-3,5dihydro-2H-benzo[c]pyrido[3,4-e]azepin-5-yl)-N-ethylacetamide]"
2,8,"CCNC(=O)CC1N=C(C2CCCCC2)c2cc(OC)ccc2-c2cn(C)c(=O)cc21 (racemic) [Compound 26, ±2-(7-cyclohexyl-9-methoxy-2-methyl-3-oxo-3,5-dihydro-2H-benzo[c]pyrido[3,4-e]azepin-5-yl)-N-ethylacetamide]"
4.4,112,"CCNC(=O)CC1N=C(c2ccccn2)c2cc(OC)ccc2-c2cn(C)c(=O)cc21 (racemic) [Compound 27, ±2-(9-methoxy-2-methyl-3-oxo-7-(pyridin-2-yl)-3,5-dihydro-2H-benzo[c]pyrido[3,4-e]azepin-5-yl)-N-ethylacetamide]"
36,326,"COc1ccc2c(c1)C(c1ccc(Cl)cc1)=NC(CC(N)=O)c1cc(=O)n(C)cc1-2 (racemic) [Compound 28, ±2-(7-(4-chlorophenyl)-9-methoxy-2-methyl-3-oxo-3,5-dihydro-2H-benzo[c]pyrido[3,4-e]azepin-5-yl)acetamide]"
10,118,"CCNC(=O)CC1N=C(CC2CC2)c2cc(OC)ccc2-c2cn(C)c(=O)cc21 (racemic) [Compound 30, ±2-(7-(cyclopropylmethyl)-9-methoxy-2-methyl-3-oxo-3,5-dihydro-2H-benzo[c]pyrido[3,4-e]azepin-5-yl)-N-ethylacetamide]"
49,108,"CCNC(=O)CC1N=C(C(F)(F)F)c2cc(OC)ccc2-c2cn(C)c(=O)cc21 (racemic) [Compound 32, ±2-(9-methoxy-2-methyl-3-oxo-7-(trifluoromethyl)-3,5-dihydro-2H-benzo[c]pyrido[3,4-e]azepin-5-yl)-N-ethylacetamide]"
77,40,"CCNC(=O)CC1N=C(c2ccc(Cl)cc2)c2cc(C(F)(F)F)ccc2-c2cn(C)c(=O)cc21 (racemic) [Compound 35, ±2-(7-(4-chlorophenyl)-2-methyl-3-oxo-9-(trifluoromethyl)-3,5-dihydro-2H-benzo[c]pyrido[3,4-e]azepin-5-yl)-N-ethylacetamide]"
4,28,"CCNC(=O)CC1N=C(c2ccc(Cl)cc2)c2cc(F)ccc2-c2cn(C)c(=O)cc21 (racemic) [Compound 37, ±2-(7-(4-chlorophenyl)-9-fluoro-2-methyl-3-oxo-3,5-dihydro-2H-benzo[c]pyrido[3,4-e]azepin-5-yl)-N-ethylacetamide]"
< 0.5,13,"CCNC(=O)CC1N=C(c2c(F)cccc2F)c2cc(OC)ccc2-c2cn(C)c(=O)cc21 (racemic) [Compound 38, ±2-(7-(2,6-difluorophenyl)-9-methoxy-2-methyl-3-oxo-3,5-dihydro-2H-benzo[c]pyrido[3,4-e]azepin-5-yl)-N-ethylacetamide]"
4,8,"CCNC(=O)CC1N=C(c2ccc(Cl)cc2C)c2cc(OC)ccc2-c2cn(C)c(=O)cc21 (racemic) [Compound 39, ±2-(7-(4-chloro,2-methylphenyl)-9-methoxy-2-methyl-3-oxo-3,5-dihydro-2H-benzo[c]pyrido[3,4-e]azepin-5-yl)-N-ethylacetamide]"
12,24,"CCNC(=O)C[C@H]1O[C@H](c2ccc(Cl)cc2)c2cc(OC)ccc2-c2cn(C)c(=O)cc21 [Compound 8F, 2-((5R,7R)-7-(4-chlorophenyl)-9-methoxy-2-methyl-3-oxo-2,3,5,7-tetrahydrobenzo[5,6]oxepino[4,3-c]pyridin-5-yl)-N-ethylacetamide]"
